# Like-named read-outs stand apart in the source and are kept apart here.
# How the values were obtained:
# C. albicans (10,935) = assay: Broth microdilution antifungal susceptibility (CLSI M27-A3), MIC and MFC; format: cell-based, Candida albicans; details: for MFC / MIC: Candida albicans, 48 h
# Description: (§1) The antifungal activity of the EO and its main components was evaluated against reference strains and clinical isolates of Candida. The reference strains C. albicans (ATCC 7978) and C. parapsilosis (ATCC 22019) were used, as well as the clinical isolates C. albicans 10,935, C. dubliniensis 3240, Candida glabrata 10,912, C. guilliermondii 12,204, C. lusitaniae 2305, and Candida tropicalis 9841. The clinical isolates were obtained from patients of the Base Hospital of […], Los Ríos Region, Chile. After identification, the microorganisms were included in the pathogenic fungal collection (Bioassay Laboratory of University of […]íso). They are maintained in Sabouraud Dextrose Broth (SDB) with glycerol at -80°C according to established protocols ([Madrid et al., 2012]). […] Briefly, cultures of all yeast were placed on Sabouraud Dextrose Agar (SDA) and incubated for 24-72 h at temperature 37°C. Colonies of this culture were suspended in sterile 0.85% NaCl and the inoculum was standardized according to the scale of 0.5 McFarland (1-5 × 10^6 CFU/mL). The antifungal assay was conducted in 96-well plates. […] A volume of 100 μL of inoculum suspension was added to each well with the exception of the sterility control where sterile water was added to the well instead. […] Following a 24-48 h incubation at 37°C, the absorbance of the plates was measured at 540 nm using a VERSA Max microplate reader (Molecular Devices, Sunnyvale, CA, United States) for spectrophotometric analysis. […] The lowest concentration with no visible growth was defined as MFC indicating 99.5% death of the original inoculum. All experiments were performed in triplicate and repeated three times for reproducibility.
# C. albicans (ATCC 7978) = assay: as above; format: cell-based, Candida albicans; details: for MFC / MIC: Candida albicans
# Description: as §1
# [1] = system: C. parapsilosis (ATCC 22019); assay: as above; format: cell-based, Candida parapsilosis; details: Lodderomyces parapsilosis
# Description: as §1
# [2] = system: C. guilliermondii (12,204); assay: as above; format: cell-based; details: Meyerozyma guilliermondii, 48 h
# Description: as §1
# C. lusitaniae (2305) = assay: as above; format: cell-based; details: for MFC / MIC: Clavispora lusitaniae, 48 h; for MFC/MIC ratio: C. lusitaniae
# Description: as §1
# C. tropicalis (9841) = assay: as above; format: cell-based; details: Candida tropicalis, 48 h
# Description: as §1
# C. glabrata (10,912) = assay: as above; format: cell-based, Candida glabrata; details: for MFC / MIC: Nakaseomyces glabratus, 48 h
# Description: as §1
# Candida spp. = assay: Broth microdilution antifungal susceptibility, summary over all tested strains; format: cell-based; details: for MIC: Candida, summary over all tested strains
# Description: as §1
# [3] = system: CCD 841 CoN (colon epithelial cells); assay: Sulforhodamine B (SRB) cell viability assay; format: cell-based; details: Homo sapiens, 72 h, non-tumorigenic cells
# Description: (§2) The cytotoxicity of C. chilense EO was evaluated in two non-tumorigenic human cell lines: CCD 841 CoN (colon epithelial cells) and HEK-293T (human embryonic kidney). All tested cell lines were obtained from the AmericanType Culture Collection (Rockville, MD, United States). The different cell lines were maintained as monolayers in a culture medium (HAM-F10 + DMEM, 1:1) supplemented with 10% fetal bovine serum, as well as antibiotics (0.01 mg/mL streptomycin and 0.005 mg/mL penicillin). The cells were incubated at 37 °C in a humidified 5% CO2 atmosphere.
# (§3) To determine the effect on cell viability of C. chilense EO, the sulforhodamine B (SRB)assay was used to measure the number of viable cells after each treatment ([Silva et al., 2022]). Cells were seeded in 96-well plates at 3 × 10^3 cells/well in 100 μL of culture medium and treated in triplicate with increasing concentrations of essential oil (0.625–100 μg/mL) for 72 h at 37°C and 5% CO2. The cells which received only the medium containing 0.1% DMSO served as the control group. […] The dye is solubilized with 150 μL/well of 10 mM Tris Base, and the absorbance is then measured at a wavelength of 540 nm in a microplate reader. […]
# [4] = system: HEK-293T (human embryonic kidney); assay: Sulforhodamine B (SRB) cell viability assay; format: cell-based; details: 72 h, non-tumorigenic cells
# Description: as §2, §3
# [5] = C. albicans (10,935), clinical isolate, read-out: MFC
# [6] = C. albicans (10,935), clinical isolate, read-out: MIC
# [7] = ATCC7978, C. albicans (ATCC 7978), 48 h, read-out: MFC
# [8] = ATCC7978, C. albicans (ATCC 7978), 48 h, read-out: MIC
# [9] = ATCC22019, C. parasilopsis (ATCC 22019), 48 h, read-out: MFC
# [10] = ATCC22019, C. parasilopsis (ATCC 22019), 48 h, read-out: MIC
# [11] = C. guilliermondii (12,204), clinical isolate, read-out: MFC
# [12] = C. guilliermondii (12,204), clinical isolate, read-out: MIC
# [13] = C. lusitaniae (2305), clinical isolate, read-out: MFC
# [14] = C. lusitaniae (2305), clinical isolate, read-out: MIC
# [15] = C. tropicalis (9841), clinical isolate, read-out: MFC
# [16] = C. tropicalis (9841), clinical isolate, read-out: MIC
# [17] = C. glabrata (10,912), clinical isolate, read-out: MFC
# [18] = C. glabrata (10,912), clinical isolate, read-out: MIC
# [19] = as stated in the text for several or all strains
# [20] = remaining species/strains, those not named with ratio 1
Compound,"MFC (C. albicans (10,935); [5])","MIC (C. albicans (10,935); [6])",MFC (C. albicans (ATCC 7978); [7]),MIC (C. albicans (ATCC 7978); [8]),"MFC [1, 9]","MIC [1, 10]","MFC [2, 11]","MIC [2, 12]",MFC (C. lusitaniae (2305); [13]),MIC (C. lusitaniae (2305); [14]),MFC (C. tropicalis (9841); [15]),MIC (C. tropicalis (9841); [16]),"MFC (C. glabrata (10,912); [17])","MIC (C. glabrata (10,912); [18])",also measured
"OC(Cn1cncn1)(Cn1cncn1)c1ccc(F)cc1F [C2, fluconazole, reference compound]",4 µg/mL,2 µg/mL,1 µg/mL,0.5 µg/mL,2 µg/mL,1 µg/mL,1 µg/mL,0.5 µg/mL,4 µg/mL,2 µg/mL,1 µg/mL,0.5 µg/mL,64 µg/mL,32 µg/mL,MFC/MIC ratio (Candida spp.; [19]): 2
"O=c1[nH]cc(F)c(=O)[nH]1 [5-FU, 5-fluorouracil]",–,–,–,–,–,–,–,–,–,–,–,–,–,–,IC50 [3]: 56.4 ± 0.31 µg/mL; IC50 [4]: 18.3 ± 0.56 µg/mL
"Cc1ccc(C(C)C)c(O)c1 [Compound 2, thymol]",32 µg/mL,32 µg/mL,64 µg/mL,64 µg/mL,64 µg/mL,32 µg/mL,64 µg/mL,32 µg/mL,64 µg/mL,32 µg/mL,128 µg/mL,64 µg/mL,64 µg/mL,64 µg/mL,"MFC/MIC ratio (C. albicans (10,935); C. albicans (10,935)): 1; MFC/MIC ratio (C. albicans (ATCC 7978); C. albicans (ATCC 7978)): 1; MFC/MIC ratio (C. lusitaniae (2305)): 1; MFC/MIC ratio (C. glabrata (10,912); C. glabrata): 1; MIC (Candida spp.): 32 to 64 µg/mL; MFC/MIC ratio (Candida spp.; [20]): 2"
"C[C@@H]1[C@H](O)[C@@H](C)/C=C/C=C/C=C/C=C/C=C/C=C/C=C/[C@H](O[C@@H]2O[C@H](C)[C@@H](O)[C@H](N)[C@@H]2O)C[C@@H]2O[C@](O)(C[C@@H](O)C[C@@H](O)[C@H](O)CC[C@@H](O)C[C@@H](O)CC(=O)O[C@H]1C)C[C@H](O)[C@H]2C(=O)O [C1, amphotericin B, reference compound]",256 µg/mL,128 µg/mL,2 µg/mL,1 µg/mL,1 µg/mL,0.5 µg/mL,128 µg/mL,64 µg/mL,128 µg/mL,64 µg/mL,64 µg/mL,32 µg/mL,256 µg/mL,128 µg/mL,–
"CC1CCC(C(C)C)C(=O)C1 (stereo not shown) [Compound 3, isomenthone]",128 µg/mL,128 µg/mL,128 µg/mL,128 µg/mL,128 µg/mL,128 µg/mL,128 µg/mL,128 µg/mL,64 µg/mL,64 µg/mL,128 µg/mL,64 µg/mL,128 µg/mL,128 µg/mL,MIC (Candida spp.): 128 µg/mL; MFC/MIC ratio (Candida spp.; [19]): 1
"CC(C)=C1CC[C@@H](C)CC1=O [Compound 1, pulegone]",–,–,–,–,–,–,–,–,–,–,–,–,–,–,"MFC (C. albicans (10,935)): 128 µg/mL; MIC (C. albicans (10,935)): 64 µg/mL; MFC (C. albicans (ATCC 7978); ATCC7978, 48 h): 128 µg/mL; MIC (C. albicans (ATCC 7978); ATCC7978, 48 h): 128 µg/mL; MFC ([1]; ATCC22019, 48 h): 256 µg/mL; MIC ([1]; ATCC22019, 48 h): 128 µg/mL; MFC [2]: 128 µg/mL; MIC [2]: 64 µg/mL; MFC/MIC ratio (C. lusitaniae (2305)): 1; MFC (C. lusitaniae (2305)): 64 µg/mL; MIC (C. lusitaniae (2305)): 64 µg/mL; MFC (C. tropicalis (9841)): 256 µg/mL; MIC (C. tropicalis (9841)): 128 µg/mL; MFC (C. glabrata (10,912)): 128 µg/mL; MIC (C. glabrata (10,912)): 128 µg/mL; MFC/MIC ratio (Candida spp.; [20]): 2"
"CCC(C)n1ncn(-c2ccc(N3CCN(c4ccc(OCC5COC(Cn6cncn6)(c6ccc(Cl)cc6Cl)O5)cc4)CC3)cc2)c1=O (stereo not shown) [C3, itraconazole, reference compound]",8 µg/mL,4 µg/mL,1 µg/mL,0.5 µg/mL,1 µg/mL,1 µg/mL,4 µg/mL,2 µg/mL,8 µg/mL,4 µg/mL,1 µg/mL,0.5 µg/mL,16 µg/mL,8 µg/mL,–
